Assay results reported in patent US20200024347A1, “OR10H1 ANTIGEN BINDING PROTEINS AND USES THEREOF” (iOmx Therapeutics AG, priority 2016, published 2020).

Key:
Format in all cases: cell-based, human
OR10H1 = assay: Stable lentiviral shRNA knock-down of OR10H1 in M579-A2
[1] = tested on: SW480 colorectal cancer cells; assay: Chromium release assay, lysis of SW480 by HLA-matched TILs; conditions: SW480, 50:1 E:T ratio, 4 h co-culture
Description: (§1) Furthermore, it was tested whether OR10H1 knock-down also has an effect in other cancers. […] SW480 (ATCC) and PANC-1 cells were analyzed for their expression of OR10H1 (see above) and the knock-down efficacy of the siRNAs were validated. The CRC cell line SW480 and the PANC-1 cell line were each co-cultured with corresponding HLA-matched TILs for chromium release (4 h co-culture). OR10H1 siRNA 1 almost tripled the lysis of SW480 by TILs in all effector to target ratios compared to the negative control siRNA (33% to 12.8% specific lysis at 50:1 E:T ratio; FIG. 1E). Indeed, knock-down of OR10H1 was almost as effective as knock-down of PD-L1 positive control on TIL-mediated lysis (FIG. 1E). Such effect was also surprising to see in pancreatic cancer cells: knock-down of OR10H1 (siRNA 1) doubled the lysis of PANC-1 by TILs in all effector to target ratios compared to the negative control siRNA (53% to 26% specific lysis at 50:1 E:T ratio; FIG. 1F).
(§2) The effects of siRNA knock-down on TIL-mediated killing and lysis in a chromium release assay were investigated as described in Khandelwal et al, 2015 (EMBO Mol Med 7:450-63). Tumor-infiltrating lymphocytes 412 and 209 microcultures were expanded from an inguinal lymph node of a melanoma patient as described in Dudley et al, 2010 (Clin Cancer Res 16:6122-31). […]

M579-A2 cells = assay: Chromium release assay, lysis of M579-A2 by TIL209; conditions: TIL209, 12.5 E:T ratio, 4 h co-culture
Description: TIL-mediated lysis of M579-A2 was validated in chromium release assay (4 h co-culture). […] Indeed, this effect of OR10H1 knock-down was stronger than the PD-L1 positive control knock-down (41% specific lysis at 12.5 E:T ratio; FIG. 1C).
(§3) The effects of siRNA knock-down on TIL-mediated killing and lysis in a chromium release assay were investigated as described in Khandelwal et al, 2015 (EMBO Mol Med 7:450-63). Tumor-infiltrating lymphocytes 412 and 209 microcultures were expanded from an inguinal lymph node of a melanoma patient as described in Dudley et al, 2010 (Clin Cancer Res 16:6122-31). M615, TIL615 and other patient-derived TIL cells were obtained analogously as described in Dudley et al, 2010. M579-A2-luc cells and M615-luc cells were produced from M579-A2 and M615, respectively (Machlenkin et al, 2008; Cancer Res 68:2006-13).

[2] = tested on: PANC-1 pancreatic adenocarcinoma cells; assay: Chromium release assay, lysis of PANC-1 by HLA-matched TILs; conditions: PANC-1, 50:1 E:T ratio, 4 h co-culture
Description: as §1, §2

OR10H1 mRNA = assay: RT-PCR of OR10H1 mRNA after siRNA transfection; conditions: M579-A2 cells, 72 h after transfection
Description: SMART pool siRNA against OR10H1 (GE Dharmacon) were tested (by RT-PCR) for their activity in downregulating OR10H1 mRNA in M579 (melanoma) cells. […] Details of the respective siRNAs are set out in Table E1.

TIL412 = assay: Luminex cytokine secretion of TIL412 after co-culture with M579-A2; conditions: 20 h co-culture
M579-A2-luc cells [3] = assay: Luc-CTL cytotoxicity assay, TIL412-mediated killing of M579-A2-luc
From the text: It was surprising to find that all siRNAs show an impact on TIL412-mediated killing of M579-A2-luc at 5:1 Effector to Target cell (E:T) ratio (FIG. 1B). Transfection of M579-A2-luc cells with OR10H1 siRNA 1 increased HLA-matched patient-derived tumor-infiltrating lymphocyte (TIL, clone 412)-mediated killing to 70% (30% remaining melanoma cells compared to a scrambled negative control siRNA; p=<0.0001). This increase in TIL-mediated lysis is stronger than for PD-L1 positive control knock-down (39% remaining cells).
as §3

M579-A2-luc cells [4] = tested on: M579-A2-luc cells

Question: For “OR10H1 shRNA 4: shRNA against OR10H1, TCTGCTGAAGGTCGGAACAAG, Sigma Aldrich TRCN0000357708, SEQ ID No. 31 (the letters are possibly those of the target site; listed as Homo sapiens)”, which “impact on OR10H1 expression and functionality” value (OR10H1) is on record?
Answer: strongest impact

Question: How did the specific lysis [1] turn out when “OR10H1 siRNA 1: siRNA against OR10H1, GGAGACACCUUGAUGGGCA, GE Dharmacon D-020479-01, SEQ ID No. 24 (listed as RNA, chemistry not given here; listed as Homo sapiens)” was run?
Answer: 33%

Question: And the specific lysis (M579-A2 cells)?
Answer: 57%

Question: And the specific lysis [2]?
Answer: 53%

Question: And the “knock-down of OR10H1 mRNA (RT-PCR)” value (OR10H1 mRNA)?
Answer: complete absence

Question: What about the “decrease of IL-6 secretion” value (TIL412) of the same substance?
Answer: 37%

Question: What about the “decrease of MCP-1 secretion” value (TIL412) of the same substance?
Answer: 39%

Question: And the “increase of IFN-gamma secretion compared to negative control” value (TIL412)?
Answer: 8%

Question: And the “increase of IL-2 secretion” value (TIL412)?
Answer: 58%

Question: What about the IFN-gamma secretion (TIL412; supernatant) of the same substance?
Answer: 3037 pg/mL

Question: What about the IL-2 secretion (TIL412; supernatant) of the same substance?
Answer: 1701 pg/mL

Question: And the IL-4 secretion (TIL412; supernatant)?
Answer: 11.8 pg/mL

Question: What about the IL-6 secretion (TIL412; supernatant) of the same substance?
Answer: 31 pg/mL

Question: What about the MCP-1 secretion (TIL412; supernatant) of the same substance?
Answer: 4035 pg/mL

Question: And the “decrease of IL-4 secretion” value (TIL412; trend)?
Answer: 20%

Question: What about the TIL-mediated killing (M579-A2-luc cells [3]; TIL412, 5:1 E:T ratio) of the same substance?
Answer: 70%

Question: What about the “remaining melanoma cells compared to scrambled negative control siRNA” value (M579-A2-luc cells [3]; TIL412, 5:1 E:T ratio) of the same substance?
Answer: 30%

Question: With “OR10H1 siRNA 2: siRNA against OR10H1, AGUAAACUCUACCCAGAAA, GE Dharmacon D-020479-02, SEQ ID No. 25 (listed as RNA, chemistry not given here; listed as Homo sapiens)” as the substance, how does the “knock-down of OR10H1 mRNA (RT-PCR)” value (OR10H1 mRNA) read?
Answer: weaker but clear reduction

Question: “OR10H1 siRNA 3: siRNA against OR10H1, GCAGAGAGCCAAUCACUCC, GE Dharmacon D-020479-03, SEQ ID No. 26 (listed as RNA, chemistry not given here; listed as Homo sapiens)” was tested. Which “knock-down of OR10H1 mRNA (RT-PCR)” value (OR10H1 mRNA) did it give?
Answer: strong reduction

Question: And the “effect on M579-A2-luc viability” value (M579-A2-luc cells [3]; without the presence of TILs)?
Answer: shows an effect

Question: For “OR10H1 siRNA 4: siRNA against OR10H1, GGUCGUGCACUAUGGCUUU, GE Dharmacon D-020479-04, SEQ ID No. 27 (listed as RNA, chemistry not given here; listed as Homo sapiens)”, which “knock-down of OR10H1 mRNA (RT-PCR)” value (OR10H1 mRNA) is on record?
Answer: weaker but clear reduction

Question: How did the TIL-mediated lysis (M579-A2-luc cells [4]) turn out when cholera toxin was run?
Answer: around 30%

Question: And the “effect on OR10H1 knockdown-mediated increase in TIL-mediated tumor lysis” value (M579-A2-luc cells [4])?
Answer: abrogated

Question: And the “effect on TIL-mediated tumor lysis in OR10H1 siRNA transfected (OR10H1-negative) M579-A2-luc” value (M579-A2-luc cells [4])?
Answer: dramatically decreases

Question: What about the “effect on TIL-mediated tumor lysis in control siRNA transfected M579-A2-luc” value (M579-A2-luc cells [4]) of the same substance?
Answer: slight decrease

Question: pertussis toxin was tested. Which “effect on TIL-mediated tumor lysis in OR10H1 siRNA transfected (OR10H1-negative) M579-A2-luc” value (M579-A2-luc cells [4]) did it give?
Answer: not observed

Question: And the “effect on TIL-mediated tumor lysis in control siRNA transfected M579-A2-luc” value (M579-A2-luc cells [4])?
Answer: slightly decreased
